Broadly, the pIC50 is −log10 of the IC50, conventionally taken in molar units. A higher pIC50 goes with a low IC50.

The target of one test is T1, IGF1 receptor (Homo sapiens, UniProt P08069).
T1 construct: MCF7 human breast cancer cells expressing IGF1 receptor; endogenous in cells; host or cells: MCF7 human breast cancer cells
The test can be described thus: ELISA-based assay of IGF1 receptor autophosphorylation inhibition in cells. Type of test: cell-based. The settings on record: IGF1R phosphorylation inhibition in MCF7 cells. As to the method:
In another embodiment, compounds that interact with the IGF1R kinase domain are tested in a cell-based assay system. In accordance with this embodiment, cells expressing a full-length IGF1 receptor or a fragment thereof containing the IGF1R kinase domain, are contacted with a candidate or a control compound and the ability of the compound to block tyrosine kinase activity of IGF1R within a cell is determined. This assay may be used to screen a single compound or a large library of candidate compounds. Typically, the cells or cell lines are of mammalian origin and they can express the IGF1 receptor, or functional IGF1R kinase domain fragment, endogenously or be genetically engineered to express the IGF1R, or functional fragment thereof. The ability of the candidate compound to inhibit IGF1R kinase activity can be determined by methods known to those skilled in the art. For example, the inhibition can be determined by ELISA-type assay or Western blot analysis with cell lysates or immunoprecipitated IGF1R receptor using various anti-IGF1R and anti-phosphotyrosine antibodies.
In general, cells expressing IGF1R are treated with modulators (i.e., inhibitors or activators) of IGF1R kinase activity and cell lysates are produced from these treated cells. IGF1Rs are isolated from the lysate by immunoprecipitation and analyzed for phosphotyrosine content. Alternatively, or in addition, cellular protein substrates phosphorylated by IGFR may be immunoprecipitated from the lysates and their degree of tyrosine phosphorylation determined.
MCF7 human breast cancer cells expressing IGF1 receptor or an engineered […] fibroblast cell line NIH 3T3 overexpressing full-length IGF1R are an exemplary cellular models in which to perform such assays. Such cells may be maintained in DMEM medium supplemented with 10% fetal bovine serum (FBS), 4% L-glutamine, 1% antibiotic solution (penicillin-Streptomycin) in a humidified atmosphere of 95% air and 5% CO2 at 37° C. Confluent cells in T175 cell culture flasks are incubated overnight with serum-free DMEM medium. After the serum starvation step, the cells are detached and split into a standard 96-well cell culture plate (one T175 flask per plate, 30 μl of cell suspension per plate well). Tested inhibitors from their 10 mM stock solutions in DMSO are subsequently added at various concentrations in serum-free DMEM medium for 1 hour incubation at 37° C. in CO2-incubator; total DMSO concentration in both treated and control wells is adjusted to 1%. Cells are then stimulated for 10 minutes with 100 nM IGF-1 added in 30 μl DMEM. After treatment, cells are lysed by addition of 30 μl of 4× lysis buffer (phosphate-buffered saline (PBS), 2% Triton-X100, 1 mM phenylmethylsulphonyl fluoride (PMSF) and 8 mM activated orthovanadate), mixing and incubation for 15 minute at room temperature. To prepare assay plates, 96-well ELISA Plates (Pierce Chemical, Reacti-bind plates) were coated by goat-anti-rabbit Fc antiserum by adding 0.25 μg antiserum per well in 0.2M sodium bicarbonate buffer per well and incubating overnight at 4° C. After incubation, the plate is washed three times by PBS with 0.02% Tween-20, supplied with 25 ng/50 μl per well of anti-IGF1R antibody (C-20, Santa Cruz Biotechnology) and incubated for several hours to overnight. Prior to the addition of the prepared cellular lysates, the antibody solution is aspirated, wells washed with PBS and supplied with 25 μl per well of Starting Block buffer (Pierce Chemical).
To measure tyrosine phosphorylation of the beta-subunits of the IGF1R, 25-50 μl of the lysates are transferred from the stimulation plate to the wells of the prepared assay plate and incubated overnight at 4° C. The wells are washed with PBS with 0.02% Tween-20, incubated with 50 μl of 1:3000 dilution of anti-phosphotyrosine 4G10-HRP antibody conjugate (Upstate Biotechnology) for 2 hours at room temperature and washed again. […]
A general note: An ELISA detects its analyte on a solid surface through an enzyme-linked reagent.

A further test concerns the target T2, IGF1R tyrosine kinase (Homo sapiens, UniProt P08069).
T2 construct: 6×His- or GST-tagged kinase domain fragments of the corresponding RTKs expressed in baculovirus system; host or cells: baculovirus system
The test can be described thus: IGF1R tyrosine kinase assay (Kinase-Glo ATP depletion or PT66/PT100 AlphaScreen). The note with it: biochemical tyrosine kinase assay. In outline:
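Luminescence of remaining ATP (Kinase-Glo) or anti-phosphotyrosine AlphaScreen proximity signal served as read-out. Reactions held purified tagged kinase domain, poly(Glu-Tyr) substrate and 10 μM ATP at pH 7.5. IC50 values came from non-linear regression fits.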
A general note: Kinase-Glo reads ATP consumption through a luciferase reaction.

pIC50: −log10 of the molar value.

T1 sequence (P08069 741-1367 limits assumed): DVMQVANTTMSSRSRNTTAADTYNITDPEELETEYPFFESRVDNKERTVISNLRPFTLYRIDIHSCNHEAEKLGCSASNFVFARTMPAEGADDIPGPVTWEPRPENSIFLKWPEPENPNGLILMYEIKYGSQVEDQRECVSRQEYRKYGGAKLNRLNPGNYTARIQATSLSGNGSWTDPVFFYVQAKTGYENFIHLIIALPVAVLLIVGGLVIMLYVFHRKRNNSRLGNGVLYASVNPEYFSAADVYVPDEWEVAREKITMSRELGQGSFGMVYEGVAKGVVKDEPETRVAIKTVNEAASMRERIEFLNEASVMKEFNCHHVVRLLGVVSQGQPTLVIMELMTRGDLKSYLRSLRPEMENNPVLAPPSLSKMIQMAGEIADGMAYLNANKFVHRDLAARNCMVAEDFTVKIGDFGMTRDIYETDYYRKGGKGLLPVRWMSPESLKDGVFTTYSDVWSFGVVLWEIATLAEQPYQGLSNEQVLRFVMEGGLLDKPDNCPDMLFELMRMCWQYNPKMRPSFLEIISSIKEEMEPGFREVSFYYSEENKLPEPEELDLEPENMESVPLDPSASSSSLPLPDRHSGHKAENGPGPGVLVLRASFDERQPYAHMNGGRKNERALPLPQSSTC
T1 sequence (P08069 31-736 partner limits assumed): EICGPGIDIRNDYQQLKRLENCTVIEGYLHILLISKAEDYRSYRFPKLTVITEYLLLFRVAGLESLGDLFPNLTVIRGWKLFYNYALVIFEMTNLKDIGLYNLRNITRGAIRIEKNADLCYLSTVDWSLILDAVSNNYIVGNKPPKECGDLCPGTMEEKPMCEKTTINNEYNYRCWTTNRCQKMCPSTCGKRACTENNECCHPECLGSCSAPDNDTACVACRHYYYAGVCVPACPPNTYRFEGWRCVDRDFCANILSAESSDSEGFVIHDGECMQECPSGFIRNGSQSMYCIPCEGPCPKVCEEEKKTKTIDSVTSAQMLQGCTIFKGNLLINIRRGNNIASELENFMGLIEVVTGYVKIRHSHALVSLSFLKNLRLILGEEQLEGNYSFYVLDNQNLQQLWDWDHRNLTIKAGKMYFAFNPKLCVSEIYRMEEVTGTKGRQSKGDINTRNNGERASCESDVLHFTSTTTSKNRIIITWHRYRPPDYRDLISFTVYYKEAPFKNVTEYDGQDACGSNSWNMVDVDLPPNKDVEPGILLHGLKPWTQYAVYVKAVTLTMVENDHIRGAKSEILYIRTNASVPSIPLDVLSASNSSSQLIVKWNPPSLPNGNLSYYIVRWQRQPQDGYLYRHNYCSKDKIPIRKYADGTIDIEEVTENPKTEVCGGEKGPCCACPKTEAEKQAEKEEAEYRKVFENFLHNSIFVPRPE
T2 sequence (P08069 999-1274 limits assumed): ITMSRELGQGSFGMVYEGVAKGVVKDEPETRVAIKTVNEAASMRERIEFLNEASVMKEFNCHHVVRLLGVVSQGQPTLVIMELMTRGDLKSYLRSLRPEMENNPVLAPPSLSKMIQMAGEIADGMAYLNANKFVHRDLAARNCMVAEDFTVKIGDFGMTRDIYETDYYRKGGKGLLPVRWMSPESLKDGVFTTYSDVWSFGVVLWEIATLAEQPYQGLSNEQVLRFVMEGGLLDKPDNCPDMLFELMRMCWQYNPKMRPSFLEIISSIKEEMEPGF

In the case of `Cc1ccc(OCC(O)CNc2cc[nH]c(=O)c2-c2nc3cc4c(cc3[nH]2)C(=O)N(C2CCN(C)CC2)C4=O)c(C)c1` (stereo not shown) [compound 15], the negative-log IC50 (pIC50) against IGF1 receptor is 5.30 to 6.30; against IGF1R tyrosine kinase it was more than 6.30.
As to `Cc1ccc2c(ccn2C[C@H](O)CNc2cc[nH]c(=O)c2-c2nc3cc4c(cc3[nH]2)C(=O)N(C2CCN(C)CC2)C4=O)c1` [compound 131], the pIC50 against IGF1 receptor was 5.30 to 6.30; on IGF1R tyrosine kinase, 4.82 to 5.30.
As for `O=C1c2cc3nc(-c4c(NC[C@@H](O)c5cccc(Cl)c5)cc[nH]c4=O)[nH]c3cc2C(=O)N1[C@H]1CN2CCC1CC2` [compound 34], the negative-log IC50 (pIC50) was less than 4.82 against IGF1 receptor and more than 6.30 on IGF1R tyrosine kinase.
Taken in the same sequence, the figures for `Cc1cc(C)c(OC[C@H](O)CNc2cc[nH]c(=O)c2-c2nc3cc4c(cc3[nH]2)C(=O)N(C2CCN(C)CC2)C4=O)cc1Cl` [compound 108] were 4.82 to 5.30 and 5.30 to 6.30.
For the molecule `Cc1ccc(OC[C@H](O)CNc2cc[nH]c(=O)c2-c2nc3cc4c(cc3[nH]2)CN(C2CCN(C)CC2)C4=O)c(C)c1` [compound 130], the pIC50 was 5.30 to 6.30 against IGF1 receptor and more than 6.30 against IGF1R tyrosine kinase.
Consider `Cc1ccc(OCC(O)CNc2cc[nH]c(=O)c2-c2nc3cc4c(cc3[nH]2)C(=O)N(CC2CCN(CCO)CC2)C4=O)c(C)c1` (stereo not shown) [compound 37], for which the pIC50 on IGF1 receptor was 4.82 to 5.30; at IGF1R tyrosine kinase it was less than 4.82.
On to `CN1CCC(N2C(=O)c3cc4nc(-c5c(NC[C@@H](O)COc6cccc7ccccc67)cc[nH]c5=O)[nH]c4cc3C2=O)CC1` [compound 87], for which the figures for the pIC50 against IGF1 receptor and against IGF1R tyrosine kinase were 5.30 to 6.30 and more than 6.30, respectively.
For the molecule `Cc1ccc(OC[C@H](O)CNc2cc[nH]c(=O)c2-c2nc3cc4c(cc3[nH]2)C(=O)N(C2CCN(C)CC2)C4=O)c(C)c1` [compound 59], the results for the pIC50 at IGF1 receptor and on IGF1R tyrosine kinase were 5.30 to 6.30 and more than 6.30, respectively.
